Test results reported in ChEMBL document CHEMBL1201862, “PubChem BioAssay data set” (2004).
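Results reflect a 48-hour exposure of cells in 96-well plates to compound at five concentrations. GI50 marks 50% less growth.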 Active and inactive are the calls of the source. No stated cut-off is given here; in the data, active = GI50 up to about 1.1 µM and inactive = higher.

Legend:
Test in all cases: NCI-60 cell line screen, 48 h
SN12C = system: SN12C
HL-60 = system: HL-60
NCI-H23 = system: NCI-H23
TK-10 = system: TK-10
PC-3 = system: PC-3
SNB-19 = system: SNB-19
OVCAR-5 = system: OVCAR-5
SK-MEL-5 = system: SK-MEL-5
MDA-MB-435 = system: MDA-MB-435
OVCAR-3 = system: OVCAR-3
Hs-578T = system: Hs-578T
T47D = system: T47D
HOP-62 = system: HOP-62
SR = system: SR
SF-295 = system: SF-295
IGROV-1 = system: IGROV-1
NCI-H460 = system: NCI-H460
Malme-3M = system: Malme-3M
COLO 205 = system: COLO 205
UACC-62 = system: UACC-62
HCT-15 = system: HCT-15
CCRF-CEM = system: CCRF-CEM
MCF7 = system: MCF7
OVCAR-4 = system: OVCAR-4
RPMI-8226 = system: RPMI-8226
M14 = system: M14
SF-268 = system: SF-268
BT-549 = system: BT-549
KM12 = system: KM12
SW-620 = system: SW-620
K562 = system: K562
MDA-N = system: MDA-N
RXF 393 = system: RXF 393
OVCAR-8 = system: OVCAR-8
786-0 = system: 786-0
EKVX = system: EKVX
HOP-92 = system: HOP-92
HCC 2998 = system: HCC 2998
UO-31 = system: UO-31
A549 = system: A549
ACHN = system: ACHN
SNB-75 = system: SNB-75
SK-MEL-28 = system: SK-MEL-28
SK-OV-3 = system: SK-OV-3
DU-145 = system: DU-145
HT-29 = system: HT-29
SK-MEL-2 = system: SK-MEL-2
SF-539 = system: SF-539
NCI-H226 = system: NCI-H226
HCT-116 = system: HCT-116
MDA-MB-231 = system: MDA-MB-231
LOX IMVI = system: LOX IMVI
U-251 = system: U-251
MOLT-4 = system: MOLT-4
A498 = system: A498
CAKI-1 = system: CAKI-1
UACC-257 = system: UACC-257
NCI/ADR-RES = system: NCI/ADR-RES

For `O=C(O)c1ccccc1/C=N\N(CCO)C1=NCCN1`, the GI50 (SN12C) was > 100 µM (inactive), the GI50 (HL-60) was > 100 µM (inactive) and the GI50 (NCI-H23) was > 100 µM (inactive). For the same compound, the GI50 (TK-10) was > 100 µM (inactive), the GI50 (PC-3) was > 100 µM (inactive) and the GI50 (SNB-19) was > 100 µM (inactive). For the same compound, the GI50 (OVCAR-5) was > 100 µM (inactive), the GI50 (SK-MEL-5) was > 100 µM (inactive) and the GI50 (MDA-MB-435) was > 100 µM (inactive). For the same compound, the GI50 (OVCAR-3) was > 100 µM (inactive), the GI50 (Hs-578T) was > 100 µM (inactive) and the GI50 (T47D) was > 100 µM (inactive). The GI50 (HOP-62) was > 100 µM (inactive), the GI50 (SR) was > 100 µM (inactive) and the GI50 (SF-295) was > 100 µM (inactive). For the same compound, the GI50 (IGROV-1) was > 100 µM (inactive), the GI50 (NCI-H460) was > 100 µM (inactive) and the GI50 (Malme-3M) was > 100 µM (inactive). For the same compound, the GI50 (COLO 205) was > 100 µM (inactive), the GI50 (UACC-62) was > 100 µM (inactive) and the GI50 (HCT-15) was > 100 µM. For the same compound, the GI50 (CCRF-CEM) was > 100 µM (inactive), the GI50 (MCF7) was > 100 µM (inactive) and the GI50 (OVCAR-4) was > 100 µM (inactive). For the same compound, the GI50 (RPMI-8226) was > 100 µM (inactive), the GI50 (M14) was > 100 µM (inactive) and the GI50 (SF-268) was > 100 µM (inactive). For the same compound, the GI50 (BT-549) was > 100 µM (inactive), the GI50 (KM12) was > 100 µM (inactive) and the GI50 (SW-620) was > 100 µM (inactive). The GI50 (K562) was > 100 µM (inactive), the GI50 (MDA-N) was > 100 µM (inactive) and the GI50 (RXF 393) was > 100 µM (inactive). For the same compound, the GI50 (OVCAR-8) was > 100 µM (inactive), the GI50 (786-0) was > 100 µM (inactive) and the GI50 (EKVX) was > 100 µM (inactive). For the same compound, the GI50 (HOP-92) was > 100 µM (inactive), the GI50 (HCC 2998) was > 100 µM (inactive) and the GI50 (UO-31) was > 100 µM (inactive). The GI50 (A549) was > 100 µM (inactive), the GI50 (ACHN) was > 100 µM (inactive) and the GI50 (SNB-75) was 93.1 µM (inactive). For the same compound, the GI50 (SK-MEL-28) was > 100 µM (inactive), the GI50 (SK-OV-3) was > 100 µM (inactive) and the GI50 (DU-145) was > 100 µM (inactive). For the same compound, the GI50 (HT-29) was > 100 µM (inactive), the GI50 (SK-MEL-2) was > 100 µM (inactive) and the GI50 (SF-539) was > 100 µM (inactive). The GI50 (NCI-H226) was > 100 µM (inactive), the GI50 (HCT-116) was > 100 µM (inactive) and the GI50 (MDA-MB-231) was > 100 µM (inactive). The GI50 (LOX IMVI) was > 100 µM (inactive), the GI50 (U-251) was > 100 µM (inactive) and the GI50 (MOLT-4) was > 100 µM (inactive).

With `Cc1cc(C)nc(NC(=S)Nc2ccc([N+](=O)[O-])cc2)c1` the GI50 (A498) was > 100 µM (inactive), the GI50 (HL-60) was > 100 µM (inactive) and the GI50 (NCI-H23) was > 100 µM (inactive). For the same compound, the GI50 (TK-10) was > 100 µM (inactive), the GI50 (PC-3) was > 100 µM (inactive) and the GI50 (SNB-19) was > 100 µM (inactive). The GI50 (SK-MEL-5) was > 100 µM (inactive), the GI50 (MDA-MB-435) was > 100 µM (inactive) and the GI50 (Hs-578T) was > 100 µM (inactive). For the same compound, the GI50 (T47D) was > 100 µM (inactive), the GI50 (HOP-62) was > 100 µM (inactive) and the GI50 (SR) was > 100 µM (inactive). For the same compound, the GI50 (IGROV-1) was > 100 µM (inactive), the GI50 (NCI-H460) was > 100 µM (inactive) and the GI50 (COLO 205) was > 100 µM (inactive). For the same compound, the GI50 (UACC-62) was > 100 µM (inactive), the GI50 (HCT-15) was > 100 µM and the GI50 (CCRF-CEM) was > 100 µM (inactive). The GI50 (MCF7) was > 100 µM (inactive), the GI50 (OVCAR-4) was > 100 µM (inactive) and the GI50 (RPMI-8226) was > 100 µM (inactive). The GI50 (SF-268) was > 100 µM (inactive), the GI50 (BT-549) was > 100 µM (inactive) and the GI50 (KM12) was > 100 µM (inactive). For the same compound, the GI50 (SW-620) was > 100 µM (inactive), the GI50 (K562) was 45.2 µM (inactive) and the GI50 (RXF 393) was > 100 µM (inactive). The GI50 (OVCAR-8) was > 100 µM (inactive), the GI50 (786-0) was > 100 µM (inactive) and the GI50 (EKVX) was > 100 µM (inactive). For the same compound, the GI50 (HOP-92) was > 100 µM (inactive), the GI50 (HCC 2998) was > 100 µM (inactive) and the GI50 (UO-31) was > 100 µM (inactive). The GI50 (ACHN) was > 100 µM (inactive), the GI50 (SNB-75) was > 100 µM (inactive) and the GI50 (SK-MEL-28) was > 100 µM (inactive). For the same compound, the GI50 (DU-145) was > 100 µM (inactive), the GI50 (HT-29) was > 100 µM (inactive) and the GI50 (SK-MEL-2) was > 100 µM (inactive). The GI50 (SF-539) was > 100 µM (inactive), the GI50 (CAKI-1) was > 100 µM (inactive) and the GI50 (NCI-H226) was > 100 µM (inactive). For the same compound, the GI50 (HCT-116) was > 100 µM (inactive), the GI50 (MDA-MB-231) was > 100 µM (inactive) and the GI50 (LOX IMVI) was > 100 µM (inactive). For the same compound, the GI50 (U-251) was > 100 µM (inactive), the GI50 (UACC-257) was > 100 µM (inactive) and the GI50 (NCI/ADR-RES) was > 100 µM (inactive). For the same compound, the GI50 (MOLT-4) was > 100 µM (inactive).

For `CC(C)(C)n1[nH]c(=O)n(C(C)(C)C)c1=O`, the GI50 (SN12C) was > 100 µM (inactive), the GI50 (A498) was > 100 µM (inactive) and the GI50 (HL-60) was > 100 µM (inactive). The GI50 (NCI-H23) was > 100 µM (inactive), the GI50 (TK-10) was > 100 µM (inactive) and the GI50 (PC-3) was > 100 µM (inactive). The GI50 (SNB-19) was > 100 µM (inactive), the GI50 (OVCAR-5) was > 100 µM (inactive) and the GI50 (SK-MEL-5) was > 100 µM (inactive). The GI50 (MDA-MB-435) was > 100 µM (inactive), the GI50 (OVCAR-3) was > 100 µM (inactive) and the GI50 (Hs-578T) was > 100 µM (inactive). The GI50 (T47D) was > 100 µM (inactive), the GI50 (SR) was > 100 µM (inactive) and the GI50 (SF-295) was > 100 µM (inactive). For the same compound, the GI50 (NCI-H460) was > 100 µM (inactive), the GI50 (COLO 205) was > 100 µM (inactive) and the GI50 (UACC-62) was > 100 µM (inactive). For the same compound, the GI50 (HCT-15) was > 100 µM, the GI50 (CCRF-CEM) was > 10 µM (inactive) and the GI50 (MCF7) was > 100 µM (inactive). The GI50 (OVCAR-4) was > 100 µM (inactive), the GI50 (RPMI-8226) was > 100 µM (inactive) and the GI50 (M14) was > 100 µM (inactive). The GI50 (SF-268) was > 100 µM (inactive), the GI50 (BT-549) was > 100 µM (inactive) and the GI50 (KM12) was > 100 µM (inactive). The GI50 (SW-620) was > 100 µM (inactive), the GI50 (K562) was > 100 µM (inactive) and the GI50 (MDA-N) was > 100 µM (inactive). For the same compound, the GI50 (RXF 393) was > 100 µM (inactive), the GI50 (786-0) was > 100 µM (inactive) and the GI50 (HOP-92) was > 100 µM (inactive). The GI50 (HCC 2998) was > 100 µM (inactive), the GI50 (UO-31) was > 100 µM (inactive) and the GI50 (A549) was > 100 µM (inactive). For the same compound, the GI50 (ACHN) was > 100 µM (inactive), the GI50 (SNB-75) was > 100 µM (inactive) and the GI50 (SK-MEL-28) was > 100 µM (inactive). For the same compound, the GI50 (SK-OV-3) was > 100 µM (inactive), the GI50 (DU-145) was > 100 µM (inactive) and the GI50 (SK-MEL-2) was > 100 µM (inactive). The GI50 (SF-539) was > 100 µM (inactive), the GI50 (CAKI-1) was > 100 µM (inactive) and the GI50 (HCT-116) was > 100 µM (inactive). The GI50 (MDA-MB-231) was > 100 µM (inactive), the GI50 (LOX IMVI) was > 100 µM (inactive) and the GI50 (U-251) was > 100 µM (inactive). The GI50 (UACC-257) was > 100 µM (inactive) and the GI50 (MOLT-4) was > 100 µM (inactive).
